For one experiment, the system named is E. coli. Description: Growth of E. coli in media supplemented with tCA. The class given is cell-based, Escherichia coli. The following applies: MM^full,opt, 1.5 mM tCA. How it is done: Microbial strains, plasmids, and growth conditions. All Escherichia coli strains were cultured in lysogeny broth (LB) (VWR International, Randor, Pa.) at 37° C. with rotary shaking at 250 rpm. All media was solidified using 1.5% (w/v) agar (Teknova Inc, Hollister, Calif.). Minimal media (MM) conditions are described in the “Optimization of growth-coupled enrichment” section below. E. coli DH5a was used as a host for the construction of the expression vectors and cultured as above only supplemented with chloramphenicol (25 μg/mL) (RPI Corp). Initial expression in MM was performed in E. coli MG1655(DE3)^ΔendA,ΔrecA and later moved to E. coli MG1655^rph+ for final experiments.
Optimization of growth-coupled enrichment. Growth was measured by seeding cultures at OD600 0.05 and monitoring cell density over time. Initial experiments used a base nitrogen-deficient minimal media (MM^N-) (33.7 mM Na2HPO4, 22 mM KH2PO4, 8.55 mM NaCl, 1 mM MgSO4, 0.1 mM CaCl2), 10 μM FeSO4, 0.4% (v/v) glycerol, 10 μg/mL thiamine, 20 μM IPTG, 12.5 μg/mL chloramphenicol, pH 7.4) that was supplemented with 9.35 mM phe (MM^phe,init) or 9.35 mM NH4Cl) Variable conditions were changed across the parameters outlined in FIG. 2, as well as moving to a more favorable strain for growth in minimal media. […]

In experiment [1] the target is T1, Anabaena variabilis phenylalanine ammonia-lyase (DM-rAvPAL/AvPAL*; C503S and C565S, SEQ ID NO:2) variant L4P/G218S (Trichormus variabilis, UniProt Q3M5Z3, C503S/C565S/G218S/L4P).
T1 construct: His-tag (N); made in house; host or cells: E. coli MG1655 rph+
As to the kind of experiment: Enzyme kinetics: production of tCA from phe (Michaelis-Menten), mutant L4P/G218S. The class given is biochemical. The following applies: relative to parental AvPAL*; phe 35 μM to 17.5 mM, PBS pH 7.4, 37° C.; FIG. 4a. How it is done: (§1) Enzyme activity assays. The activity of all AvPAL constructs was measured by production of tCA over time. Cultures were sonicated on ice using a Sonifier SFX 150 (Branson Ultrasonics, Danbury, Conn.) (2 s on; 10 s off; 4 min; 55%), and debris was separated from the lysate by centrifuging at 10,000×g for 10 min. Ten microliters of lysate were then mixed with 190 μL of pre-warmed 50 mM phe (Tokyo Chemical Industry, Portland, Oreg.) in phosphate buffered saline (PBS) (137 mM NaCl, 2.7 mM KCl, 10 mM Na2HPO4, 2 mM KH2PO4, pH 7.4) in a 96-well F-bottom UVStar (Greiner Bio-One, Kremsmünster, Austria) microtiter plate. Absorbance at 290 nm was measured every 30 s at 37° C. using a SpectraMax M3 (Molecular Devices) plate reader.
(§2) Each construct included a N-term His-tag used for immobilized metal affinity chromatography (IMAC) purification. Briefly, overnight cell cultures were sonicated in 3 mL Equilibration buffer (300 mM NaCl, 50 mM NaH2PO4, 10 mM imidazole, 15% (w/v) glycerol, pH 8.0). The lysate was loaded onto a prepared column with 2 mL TALON Metal Affinity Resin (Clontech Laboratories, Inc., Mountain View, Calif.). […] Protein concentration was measured by Bradford method using bovine serum albumin (BSA) as the standard.
(§3) Enzyme kinetics. […] The activity of 0.1 μg of protein was measured by the production of tCA over 10 min by recording the absorbance of the reaction mix at 290 nm. […]

Experiment [2] concerns the target T2, Anabaena variabilis phenylalanine ammonia-lyase (DM-rAvPAL/AvPAL*; C503S and C565S, SEQ ID NO:2) variant M222L (Trichormus variabilis, UniProt Q3M5Z3, C503S/C565S/M222L).
T2 construct: His-tag (N); made in house; host or cells: E. coli MG1655 rph+
As to the kind of experiment: Enzyme kinetics: production of tCA from phe (Michaelis-Menten), mutant M222L. It counts as biochemical. As to conditions: PBS pH 7.4, 37° C. How it is done:
as §1, §2, §3

Structures are written as SMILES.

The values below come from patent publication US20230183712A1, “METHODS FOR E[…] ACID AMMONIA LYASE ENZYMES AND ENZYMES THEREBY OBTAINED” (priority 2020, published 2023).

T2 sequence (Q3M5Z3 whole entry M222L/C503S/C565S, looked up): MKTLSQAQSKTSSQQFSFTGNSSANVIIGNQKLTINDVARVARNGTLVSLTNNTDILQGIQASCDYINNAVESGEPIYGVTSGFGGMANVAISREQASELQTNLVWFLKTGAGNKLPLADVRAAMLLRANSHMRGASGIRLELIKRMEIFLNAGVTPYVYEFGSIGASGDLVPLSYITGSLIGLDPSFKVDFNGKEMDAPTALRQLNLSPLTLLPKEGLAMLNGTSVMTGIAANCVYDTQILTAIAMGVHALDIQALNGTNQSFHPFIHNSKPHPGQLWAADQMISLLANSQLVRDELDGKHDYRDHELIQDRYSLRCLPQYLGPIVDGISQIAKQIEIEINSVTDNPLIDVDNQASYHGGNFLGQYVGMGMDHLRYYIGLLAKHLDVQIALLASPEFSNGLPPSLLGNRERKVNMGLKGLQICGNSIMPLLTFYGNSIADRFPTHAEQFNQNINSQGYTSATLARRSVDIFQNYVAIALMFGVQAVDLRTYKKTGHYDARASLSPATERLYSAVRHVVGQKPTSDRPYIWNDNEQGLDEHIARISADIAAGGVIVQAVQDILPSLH
T1 sequence (Q3M5Z3 whole entry L4P/G218S/C503S/C565S, looked up): as the sequence (Q3M5Z3 whole entry M222L/C503S/C565S, looked up) above, with L4P, G218S, L222M counted along it

Consider `O=C(O)/C=C/c1ccccc1` [tCA, trans-cinnamic acid], for which, in the experiment on E. coli, the “growth of cells supplemented with tCA” value is listed as “impaired growth”.
`N[C@@H](Cc1ccccc1)C(=O)O` [phe, phenylalanine]: in experiment [1], the “KM (fold higher than parent)” value is given as approximately 2.5 × and the “kcat (increase over parental AvPAL*)” value was 70-80%. Moreover, the “catalytic efficiency (relative to AvPAL*)” value in experiment [2] (compared to AvPAL*) is “improved catalytic efficiency”. In addition, the “kcat (increase over parental AvPAL*)” value in experiment [2] (relative to parental AvPAL*, phe 35 μM to 17.5 mM, FIG. 4a) was 70-80%.
